# Data published in ChEMBL document CHEMBL1201862, “PubChem BioAssay data set” (2004).
# Active and inactive are the calls of the source.
# Tests used:
# Cannabinoid receptor 2 [1] = biological target: T1, Cannabinoid receptor 2 (Homo sapiens, UniProt P34972); test: SAR analysis of agonists of the Cannabinoid Receptor 2 using an Image-Based Assay - Set 2. [Related pubchem assays (depositor defined):AID1961, AID1965]; format: functional
# Cannabinoid receptor 2 [2] = biological target: T1, Cannabinoid receptor 2; test: SAR analysis of antagonists of the Cannabinoid Receptor 2 using an Image-Based Assay - Set 2. [Related pubchem assays (depositor defined):AID1961, AID1965]; format: functional
# [3] = biological target: T2, G-protein coupled receptor 55 (Homo sapiens, UniProt Q9Y2T6); test: SAR analysis of selective Agonists of GPR55 using an Image-Based Assay. [Related pubchem assays (depositor defined):AID1961, AID1965]; format: functional
# [4] = biological target: T2, G-protein coupled receptor 55; test: GPR55 agonists via beta-arrestin recruitment, primary screen, imaging, U2OS cells, beta-arrestin-GFP redistribution (AID 1961); format: functional
# Cysteine protease ATG4B = biological target: T3, Cysteine protease ATG4B (Homo sapiens, UniProt Q9Y4P1); format: functional;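 also: Fluorescence-based dose-response confirmation assay measuring inhibition of ATG4B activity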
# T3 sequence (Q9Y4P1 whole entry): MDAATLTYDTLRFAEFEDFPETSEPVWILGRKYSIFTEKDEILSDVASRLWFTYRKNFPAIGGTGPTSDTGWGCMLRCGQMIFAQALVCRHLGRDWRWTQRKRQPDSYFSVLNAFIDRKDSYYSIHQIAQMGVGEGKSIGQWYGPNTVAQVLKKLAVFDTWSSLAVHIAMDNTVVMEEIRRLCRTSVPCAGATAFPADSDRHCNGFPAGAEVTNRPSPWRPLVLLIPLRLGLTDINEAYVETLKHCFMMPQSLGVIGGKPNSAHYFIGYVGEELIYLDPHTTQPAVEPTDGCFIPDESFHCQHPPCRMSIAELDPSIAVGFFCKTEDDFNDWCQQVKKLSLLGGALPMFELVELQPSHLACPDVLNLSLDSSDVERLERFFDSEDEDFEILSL
# [5] = biological target: T4, Heat shock factor protein 1 (Mus musculus, UniProt P38532); test: inhibition of MG132-induced HSE-luciferase signal, confirmation, cell-based, NIH3T3, luminescence, dose retest (AID 2382); format: functional;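 also: NIH3T3 fibroblasts with HSF1-driven luciferase reporter stressed by proteasome inhibitor MG132; luminescence from HSF1-driven luciferase expression after 8 hours of MG132 stress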
# T4 sequence (P38532 whole entry): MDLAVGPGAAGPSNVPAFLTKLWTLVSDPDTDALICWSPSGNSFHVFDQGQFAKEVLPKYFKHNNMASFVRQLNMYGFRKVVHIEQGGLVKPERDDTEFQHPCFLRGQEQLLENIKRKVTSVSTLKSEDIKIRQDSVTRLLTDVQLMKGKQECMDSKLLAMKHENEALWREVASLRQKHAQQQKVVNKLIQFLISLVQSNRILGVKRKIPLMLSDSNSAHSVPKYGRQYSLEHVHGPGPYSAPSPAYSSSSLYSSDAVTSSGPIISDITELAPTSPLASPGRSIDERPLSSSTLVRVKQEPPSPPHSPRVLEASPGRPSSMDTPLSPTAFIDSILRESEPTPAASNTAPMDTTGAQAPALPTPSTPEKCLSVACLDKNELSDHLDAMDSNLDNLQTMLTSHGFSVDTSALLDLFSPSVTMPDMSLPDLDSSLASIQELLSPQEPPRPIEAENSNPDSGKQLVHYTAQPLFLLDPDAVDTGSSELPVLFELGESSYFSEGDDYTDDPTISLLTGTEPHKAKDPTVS
# Cannabinoid receptor 1 = Cannabinoid receptor 1 (Homo sapiens, UniProt P21554); test: SAR analysis of antagonists of the Cannabinoid Receptor 1 using an Image-Based Assay. [Related pubchem assays (depositor defined):AID1961, AID1965]; format: functional
# Phospholipase A2 = Phospholipase A2 (Homo sapiens, UniProt P04054); format: functional;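 also: confirmatory dose-response counterscreen on phospholipase A2, testing hits that came from an ultra-high-throughput screen for ATG4B inhibitors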
# Mu-type opioid receptor = Mu-type opioid receptor (Homo sapiens, UniProt P35372); test: SAR Analysis of Agonists of the MOR Receptor using an Image-Based Assay - Set 3. [Related pubchem assays (depositor defined):AID1777, AID1785, AID1786, AID1966, AID2133, AID2136, AID2284, AID2285, AID2352]; format: functional
# [6] = biological target: T5, Kappa-type opioid receptor (Homo sapiens, UniProt P41145); test: SAR analysis of small molecule agonists of the kappa opioid receptor via a luminescent beta-arrestin assay - Set 3. [Related pubchem assays (depositor defined):AID1777, AID1785, AID1786, AID1966, AID2133, AID2136, AID2284, AID2500]; format: functional
# [7] = biological target: T5, Kappa-type opioid receptor; test: KOR agonist analogs, arrestin-GFP redistribution, SAR follow-up, imaging, image-based, set 3 (AID 488833); format: functional
# [8] = biological target: Delta-type opioid receptor (Homo sapiens, UniProt P41143); test: SAR Analysis of Agonists of the DOR Receptor using an Image-Based Assay - Set 3. [Related pubchem assays (depositor defined):AID1777, AID1786]; format: functional
# [9] = biological target: T6, Alkaline phosphatase, tissue-nonspecific isozyme (Homo sapiens, UniProt P05186); test: TNAP enzyme activators, dose response, selectivity assay for human IAP activator project, biochemical, TNAP isozyme, human IAP uHTS hits (AID 488886); format: functional;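 also: potency of compounds raising TNAP activity as a selectivity check on IAP activators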
# T6 sequence (P05186 whole entry): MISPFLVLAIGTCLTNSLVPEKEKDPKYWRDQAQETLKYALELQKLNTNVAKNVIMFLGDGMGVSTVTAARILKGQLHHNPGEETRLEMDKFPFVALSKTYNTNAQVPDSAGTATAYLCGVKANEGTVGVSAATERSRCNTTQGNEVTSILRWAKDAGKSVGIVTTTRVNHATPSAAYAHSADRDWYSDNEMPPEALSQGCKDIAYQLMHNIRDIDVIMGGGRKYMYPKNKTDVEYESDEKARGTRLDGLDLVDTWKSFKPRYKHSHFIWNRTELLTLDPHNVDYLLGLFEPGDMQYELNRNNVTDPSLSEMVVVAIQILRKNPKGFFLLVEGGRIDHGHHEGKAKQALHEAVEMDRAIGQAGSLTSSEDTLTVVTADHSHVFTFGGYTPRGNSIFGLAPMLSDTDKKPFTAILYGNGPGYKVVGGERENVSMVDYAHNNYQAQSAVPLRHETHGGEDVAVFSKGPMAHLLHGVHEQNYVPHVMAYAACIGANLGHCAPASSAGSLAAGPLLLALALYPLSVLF
# [10] = biological target: T7, Intestinal-type alkaline phosphatase (Mus musculus, UniProt P24822); test: PubChem AID 488875; format: functional
# [11] = biological target: T8, Intestinal-type alkaline phosphatase (Homo sapiens, UniProt P09923); test: human IAP activators, dose response, biochemical, luminescent, uHTS hits, set 2 (AID 488817); format: functional;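 also: potency of activators that raise enzyme activity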
# [12] = biological target: T8, Intestinal-type alkaline phosphatase; test: human intestinal alkaline phosphatase activators, dose response, biochemical, luminescence, uHTS hits (AID 463120); format: functional
# [13] = biological target: T7, Intestinal-type alkaline phosphatase; test: PubChem AID 488785; format: functional
# [14] = biological target: T6, Alkaline phosphatase, tissue-nonspecific isozyme; test: TNAP enzyme inhibition by screening hits, dose response, selectivity assay for mouse IAP inhibitor project, biochemical, human TNAP, uHTS hits (AID 488906); format: functional
# [15] = biological target: Dual specificity tyrosine-phosphorylation-regulated kinase 1A (Rattus norvegicus, UniProt Q63470); format: biochemical, Homo sapiens
# [16] = Counterscreen for IDE inhibitors: Luminescence-based cell-based high throughput dose response assay to identify compounds that are cytotoxic to HEK cells. [Related pubchem assays: 434962 (Primary screen (IDE inhibitors in singlicate)), 449730 (Counterscreen (Cytotoxicity in triplicate)), 435028 (Confirmation (IDE inhibitors in triplicate)) …; format: functional; conditions: HEK293
# Insulin-degrading enzyme = biological target: T9, Insulin-degrading enzyme (Homo sapiens, UniProt P14735); test: Dose Response: Fluorescence polarization-based cell-based high throughput dose response assay for inhibitors of insulin-degrading enzyme (IDE). [Related pubchem assays: 434962 (Primary screen (IDE inhibitors in singlicate)), 449730 (Counterscreen (Cytotoxicity in triplicate)), 435028 (Confirmation (IDE inhibitors in triplicate)), 434984 (Summary …; format: functional
# T9 sequence (P14735 whole entry): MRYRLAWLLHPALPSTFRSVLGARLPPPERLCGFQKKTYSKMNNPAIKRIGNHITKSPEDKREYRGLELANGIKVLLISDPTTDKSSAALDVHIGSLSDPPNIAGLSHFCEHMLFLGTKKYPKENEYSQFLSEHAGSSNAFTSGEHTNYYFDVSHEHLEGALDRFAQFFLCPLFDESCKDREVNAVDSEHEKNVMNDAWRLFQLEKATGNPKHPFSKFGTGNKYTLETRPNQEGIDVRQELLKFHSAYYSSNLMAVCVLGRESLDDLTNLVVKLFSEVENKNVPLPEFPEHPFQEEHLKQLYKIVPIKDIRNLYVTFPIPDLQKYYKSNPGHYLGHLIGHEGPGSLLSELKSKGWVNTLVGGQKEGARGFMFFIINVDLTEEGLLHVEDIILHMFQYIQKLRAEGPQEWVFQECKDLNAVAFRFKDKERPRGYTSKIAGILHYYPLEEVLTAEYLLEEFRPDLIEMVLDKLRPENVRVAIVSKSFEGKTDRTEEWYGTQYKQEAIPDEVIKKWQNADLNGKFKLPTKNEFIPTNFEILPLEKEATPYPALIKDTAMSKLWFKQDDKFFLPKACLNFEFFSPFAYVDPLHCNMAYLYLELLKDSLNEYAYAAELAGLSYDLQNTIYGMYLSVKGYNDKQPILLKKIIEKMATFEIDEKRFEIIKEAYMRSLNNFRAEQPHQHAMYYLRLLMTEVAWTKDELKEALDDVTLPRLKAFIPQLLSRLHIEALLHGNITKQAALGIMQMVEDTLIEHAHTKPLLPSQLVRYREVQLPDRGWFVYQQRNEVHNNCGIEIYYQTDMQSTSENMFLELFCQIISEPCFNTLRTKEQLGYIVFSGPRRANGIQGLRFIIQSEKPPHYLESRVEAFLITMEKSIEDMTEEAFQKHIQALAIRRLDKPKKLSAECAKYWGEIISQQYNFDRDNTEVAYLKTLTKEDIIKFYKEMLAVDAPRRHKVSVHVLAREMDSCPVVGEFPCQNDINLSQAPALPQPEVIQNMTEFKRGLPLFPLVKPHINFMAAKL
# [17] = biological target: T8, Intestinal-type alkaline phosphatase; test: inhibition of human intestinal alkaline phosphatase – biochemical, dose response (AID 488876); format: functional
# SUMO-activating enzyme [18] = biological target: T10, SUMO-activating enzyme (Homo sapiens, UniProt Q9UBT2); test: SUMOylation inhibitor hit validation, confirmation, SUMOylation inhibitor project, biochemical, AlphaScreen (AID 2018); format: functional
# SUMO E1/E2 = SUMO E1/E2 (Homo sapiens, UniProt P63279+Q9UBE0+Q9UBT2); test: SAR analysis of SUMOylation using HTRF in an in-Vitro dose response assay. [Related pubchem assays (depositor defined):AID2006, AID2011, AID2018, AID2069, AID2658]; format: functional
# SUMO-activating enzyme [19] = biological target: T10, SUMO-activating enzyme; test: inhibitors of in vitro SUMOylation cascade, primary screen, biochemical, HTRF, uHTS (AID 2006); format: protein-complex assay
# Exodeoxyribonuclease V = Exodeoxyribonuclease V (Escherichia coli (strain K12), UniProt P04993+P07648+P08394); test: E. coli RecBCD inhibitors, dose response, counter-screen for AddAB inhibitor project, absorbance, V66 E. coli, mutant T4 phage (AID 492957); format: functional, cell-based, Escherichia coli str. K-12 substr. MG1655
# [20] = Counterscreen for AddAB inhibitors: absorbance-based bacterial cell-based high throughput dose response assay for inhibitors of bacterial viability. [Related pubchem assays (depositor defined):AID435030, AID449728, AID449731, AID488942, AID488955, AID488956]; format: functional
# H9c2 = test: cells; format: functional, cell-based; conditions: Rattus norvegicus, H9c2, Myocardium;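 also: confirmatory concentration-response retest of ultra-high-throughput screening hits for modulation of myocardial damage; cell death induced by hydrogen peroxide oxidative stress; compound pretreatment for 60 min then peroxide exposure for 2 h; potency is for protecting the cells against peroxide damage rather than for killing them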
# T8 sequence (P09923 whole entry): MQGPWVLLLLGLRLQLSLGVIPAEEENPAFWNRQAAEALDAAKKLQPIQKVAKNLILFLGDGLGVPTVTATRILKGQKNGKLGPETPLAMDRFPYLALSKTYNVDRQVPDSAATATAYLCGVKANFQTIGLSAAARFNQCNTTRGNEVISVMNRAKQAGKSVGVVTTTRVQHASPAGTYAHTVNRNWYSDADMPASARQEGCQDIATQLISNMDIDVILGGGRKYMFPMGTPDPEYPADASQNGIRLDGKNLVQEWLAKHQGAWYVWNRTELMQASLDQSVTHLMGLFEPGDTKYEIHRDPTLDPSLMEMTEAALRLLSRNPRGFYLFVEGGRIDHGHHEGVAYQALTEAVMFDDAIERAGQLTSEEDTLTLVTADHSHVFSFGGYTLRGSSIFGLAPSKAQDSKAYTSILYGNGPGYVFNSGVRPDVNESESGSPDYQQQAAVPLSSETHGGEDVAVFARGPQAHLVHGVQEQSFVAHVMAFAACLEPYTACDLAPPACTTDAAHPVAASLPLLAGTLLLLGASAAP
# T1 sequence (P34972 whole entry): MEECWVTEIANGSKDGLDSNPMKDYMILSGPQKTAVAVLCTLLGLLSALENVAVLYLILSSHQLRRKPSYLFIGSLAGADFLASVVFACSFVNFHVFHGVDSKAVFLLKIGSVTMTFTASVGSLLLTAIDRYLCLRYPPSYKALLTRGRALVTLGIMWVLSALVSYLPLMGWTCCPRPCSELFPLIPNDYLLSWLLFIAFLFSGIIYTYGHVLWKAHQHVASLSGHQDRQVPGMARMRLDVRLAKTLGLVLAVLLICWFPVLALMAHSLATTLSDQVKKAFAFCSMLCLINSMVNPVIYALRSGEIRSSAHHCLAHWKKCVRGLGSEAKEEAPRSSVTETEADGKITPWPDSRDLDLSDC
# T7 sequence (P24822 whole entry): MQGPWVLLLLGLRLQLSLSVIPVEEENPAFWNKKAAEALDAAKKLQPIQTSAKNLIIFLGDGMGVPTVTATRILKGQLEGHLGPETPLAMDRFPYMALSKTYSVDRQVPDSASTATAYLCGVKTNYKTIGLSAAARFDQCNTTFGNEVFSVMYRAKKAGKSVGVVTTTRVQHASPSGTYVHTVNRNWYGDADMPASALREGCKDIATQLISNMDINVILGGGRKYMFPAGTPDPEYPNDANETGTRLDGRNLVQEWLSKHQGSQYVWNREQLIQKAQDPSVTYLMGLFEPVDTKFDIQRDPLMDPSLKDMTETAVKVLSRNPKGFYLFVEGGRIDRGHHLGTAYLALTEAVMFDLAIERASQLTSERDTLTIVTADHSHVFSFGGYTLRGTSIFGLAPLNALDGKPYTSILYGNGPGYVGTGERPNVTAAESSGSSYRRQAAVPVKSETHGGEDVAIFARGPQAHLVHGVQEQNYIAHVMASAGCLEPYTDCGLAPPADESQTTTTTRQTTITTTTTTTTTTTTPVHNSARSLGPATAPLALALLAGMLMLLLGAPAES
# T5 sequence (P41145 whole entry): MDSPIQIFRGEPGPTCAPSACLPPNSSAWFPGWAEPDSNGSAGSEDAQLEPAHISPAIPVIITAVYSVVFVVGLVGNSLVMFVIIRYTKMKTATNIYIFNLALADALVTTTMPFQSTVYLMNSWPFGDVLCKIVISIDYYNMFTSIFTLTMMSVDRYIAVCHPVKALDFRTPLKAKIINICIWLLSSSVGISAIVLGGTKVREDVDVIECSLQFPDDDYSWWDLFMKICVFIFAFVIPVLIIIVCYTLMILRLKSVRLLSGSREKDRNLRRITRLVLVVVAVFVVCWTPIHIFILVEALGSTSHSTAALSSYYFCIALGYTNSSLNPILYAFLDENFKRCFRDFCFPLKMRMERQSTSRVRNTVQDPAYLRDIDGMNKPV
# T10 sequence (Q9UBE0 whole entry): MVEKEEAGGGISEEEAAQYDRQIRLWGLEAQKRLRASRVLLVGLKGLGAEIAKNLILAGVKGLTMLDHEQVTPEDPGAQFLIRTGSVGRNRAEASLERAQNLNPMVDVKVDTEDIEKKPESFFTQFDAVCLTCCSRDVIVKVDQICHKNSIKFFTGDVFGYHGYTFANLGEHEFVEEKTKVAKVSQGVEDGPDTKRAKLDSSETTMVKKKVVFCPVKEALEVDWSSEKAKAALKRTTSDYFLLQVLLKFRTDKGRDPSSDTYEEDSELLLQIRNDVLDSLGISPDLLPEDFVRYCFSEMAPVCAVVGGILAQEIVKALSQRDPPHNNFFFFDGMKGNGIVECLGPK
# T10 sequence (Q9UBT2 whole entry): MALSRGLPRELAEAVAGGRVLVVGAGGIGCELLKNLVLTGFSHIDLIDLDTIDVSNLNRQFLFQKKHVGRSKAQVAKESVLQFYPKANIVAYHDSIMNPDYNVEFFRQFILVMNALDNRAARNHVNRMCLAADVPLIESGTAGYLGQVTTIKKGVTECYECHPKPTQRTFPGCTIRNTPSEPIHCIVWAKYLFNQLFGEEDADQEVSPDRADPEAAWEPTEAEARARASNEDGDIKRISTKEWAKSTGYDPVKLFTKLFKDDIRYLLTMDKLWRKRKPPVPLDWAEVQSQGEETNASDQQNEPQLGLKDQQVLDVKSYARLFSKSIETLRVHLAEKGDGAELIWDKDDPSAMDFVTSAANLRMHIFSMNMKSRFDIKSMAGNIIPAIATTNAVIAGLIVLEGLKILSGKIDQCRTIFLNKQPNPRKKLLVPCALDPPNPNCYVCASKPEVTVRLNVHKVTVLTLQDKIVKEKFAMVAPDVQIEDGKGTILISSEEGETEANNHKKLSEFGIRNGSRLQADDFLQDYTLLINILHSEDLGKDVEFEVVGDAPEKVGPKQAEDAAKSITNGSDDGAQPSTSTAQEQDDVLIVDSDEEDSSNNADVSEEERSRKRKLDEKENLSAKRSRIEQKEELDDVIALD
# T2 sequence (Q9Y2T6 whole entry): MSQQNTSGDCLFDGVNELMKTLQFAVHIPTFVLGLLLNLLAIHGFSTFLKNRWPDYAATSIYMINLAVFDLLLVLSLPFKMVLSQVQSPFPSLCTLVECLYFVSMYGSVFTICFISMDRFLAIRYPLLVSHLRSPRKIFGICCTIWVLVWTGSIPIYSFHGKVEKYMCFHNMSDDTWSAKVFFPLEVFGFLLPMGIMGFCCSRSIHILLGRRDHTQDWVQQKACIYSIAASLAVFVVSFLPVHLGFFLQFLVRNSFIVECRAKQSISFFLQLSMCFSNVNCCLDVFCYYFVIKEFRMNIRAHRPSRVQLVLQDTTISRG
# Chain of Mu-type opioid receptor (P35372 whole entry): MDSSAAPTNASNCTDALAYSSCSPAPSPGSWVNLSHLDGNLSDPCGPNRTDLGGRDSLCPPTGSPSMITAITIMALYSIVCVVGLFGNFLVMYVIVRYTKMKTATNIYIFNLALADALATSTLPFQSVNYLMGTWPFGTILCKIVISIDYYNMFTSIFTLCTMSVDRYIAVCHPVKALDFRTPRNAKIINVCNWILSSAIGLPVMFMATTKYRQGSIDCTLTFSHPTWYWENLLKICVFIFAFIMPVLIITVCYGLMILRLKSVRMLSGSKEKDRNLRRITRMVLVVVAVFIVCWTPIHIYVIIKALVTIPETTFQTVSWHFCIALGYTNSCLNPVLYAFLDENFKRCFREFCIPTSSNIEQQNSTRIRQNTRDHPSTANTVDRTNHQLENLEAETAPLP
# Chain of Delta-type opioid receptor (P41143 whole entry): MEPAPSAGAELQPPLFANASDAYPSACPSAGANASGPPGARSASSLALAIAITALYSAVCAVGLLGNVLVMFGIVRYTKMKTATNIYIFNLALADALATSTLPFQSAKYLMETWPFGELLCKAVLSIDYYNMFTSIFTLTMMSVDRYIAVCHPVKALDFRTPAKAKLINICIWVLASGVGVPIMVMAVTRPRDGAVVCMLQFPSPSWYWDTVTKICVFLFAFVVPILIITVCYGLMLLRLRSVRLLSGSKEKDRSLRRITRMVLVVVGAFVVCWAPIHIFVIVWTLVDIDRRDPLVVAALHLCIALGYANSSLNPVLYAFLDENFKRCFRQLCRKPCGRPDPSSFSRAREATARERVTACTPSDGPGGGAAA
# Chain of Cannabinoid receptor 1 (P21554 whole entry): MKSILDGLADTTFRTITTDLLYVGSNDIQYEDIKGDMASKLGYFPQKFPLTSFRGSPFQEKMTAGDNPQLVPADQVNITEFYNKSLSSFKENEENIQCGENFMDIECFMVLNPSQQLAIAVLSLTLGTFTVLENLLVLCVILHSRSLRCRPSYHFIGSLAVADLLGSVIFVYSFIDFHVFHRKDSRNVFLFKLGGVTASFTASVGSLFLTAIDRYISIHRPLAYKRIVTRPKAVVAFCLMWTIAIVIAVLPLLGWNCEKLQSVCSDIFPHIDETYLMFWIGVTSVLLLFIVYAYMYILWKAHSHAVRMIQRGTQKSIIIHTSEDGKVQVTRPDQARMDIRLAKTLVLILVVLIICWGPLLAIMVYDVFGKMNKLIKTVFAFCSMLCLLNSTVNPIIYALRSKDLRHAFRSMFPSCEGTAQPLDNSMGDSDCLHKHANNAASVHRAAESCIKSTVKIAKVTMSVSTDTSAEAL
# Chain of SUMO E1/E2 (Q9UBE0 whole entry): as the sequence (Q9UBE0 whole entry) above
# Chain of SUMO E1/E2 (Q9UBT2 whole entry): as the sequence (Q9UBT2 whole entry) above
# Chain of SUMO E1/E2 (P63279 whole entry): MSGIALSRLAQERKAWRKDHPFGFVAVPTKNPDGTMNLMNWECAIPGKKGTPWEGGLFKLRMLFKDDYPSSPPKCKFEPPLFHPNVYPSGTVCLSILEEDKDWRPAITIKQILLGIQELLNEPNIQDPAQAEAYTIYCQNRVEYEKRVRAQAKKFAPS
# Chain of Phospholipase A2 (P04054 whole entry): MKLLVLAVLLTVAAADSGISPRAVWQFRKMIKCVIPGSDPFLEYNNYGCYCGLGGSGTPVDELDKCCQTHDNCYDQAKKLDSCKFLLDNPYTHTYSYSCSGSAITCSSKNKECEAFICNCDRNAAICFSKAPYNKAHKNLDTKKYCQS
smiles,measurement,setting,value
COc1cc2c(cc1NC(=O)C(C)Sc1ccc(NC(C)=O)cc1)oc1ccccc12 (stereo not drawn),EC50,Cannabinoid receptor 2 [1],> 32 µM (inactive)
same,IC50,Cannabinoid receptor 2 [2],> 32 µM (inactive)
same,EC50,[3],0.865 µM (active)
same,EC50,[4],0.806 µM (active)
same,IC50,Cysteine protease ATG4B,14.7 µM (active)
same,EC50,[5],> 195 µM (not active)
same,IC50,Cannabinoid receptor 1,> 32 µM (inactive)
same,IC50,Phospholipase A2,10 µM (active)
Cc1c(CSc2nnc(-c3ccccn3)n2Cc2ccco2)cccc1[N+](=O)[O-],EC50,Mu-type opioid receptor,> 32 µM (inactive)
same,EC50,[6],8.21 µM (active)
same,EC50,[7],12.2 µM (inactive)
same,EC50,[8],> 64 µM (inactive)
COc1cc(OC)cc(C(=O)NNC(=O)c2nn(C)c(=O)c3ccccc23)c1,EC50,[9],11.8 µM (active)
same,EC50,[10],> 100 µM (inactive)
same,EC50,[11],12.4 µM (active)
same,EC50,[12],11.8 µM (active)
COc1cc(/C=N/N2C(=O)CSC2=S)ccc1O,IC50,[13],2.2 µM (active)
same,IC50,[14],> 100 µM (inactive)
same,AC50,[15],9.55 µM (active)
same,IC50,[16],> 55.7 µM (not active)
same,IC50,Insulin-degrading enzyme,> 6.22 µM (active)
same,IC50,[17],21.3 µM (active)
COc1cc(C2c3c(oc4ccccc4c3=O)C(=O)N2c2nccs2)ccc1O (stereo not drawn),IC50,SUMO-activating enzyme [18],12.7 µM (active)
same,IC50,SUMO E1/E2,81.5 µM (active)
same,IC50,SUMO-activating enzyme [19],36 µM (active)
O=C1c2ccccc2NC(c2ccc(-c3cccc([N+](=O)[O-])c3)o2)N1O (stereo not drawn),IC50,Exodeoxyribonuclease V,> 119 µM (inactive)
same,IC50,[20],> 119 µM (inactive)
same,IC50,H9c2,11.9 µM (active)
